pIC50: −log10 of the molar value.
How the values were obtained:
recombinant human WRN = target: T1, recombinant human WRN (Homo sapiens, UniProt Q14191); test: Inhibition of WRN enzyme activity (ATPase), ADP-Glo Kinase Assay; assay type: biochemical; settings: WRN protein 5 nM, Flap 0.1 nM, ATP 30 µM; read-out: IC50
T1 construct: purchased BPS 101264
Method in brief: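 Recombinant human WRN (5 nM) was preincubated with compound (1000–0.004 nM) for 15 min at room temperature. Flap26 5'-flap DNA (0.1 nM) and 30 µM ATP were then added for 10 min in Tris pH 7.5, MgCl2, NaCl, BSA, Pluronic buffer. ADP was detected by ADP-Glo luminescence, and IC50 was obtained by nonlinear regression versus a 0.1% DMSO control.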

[1] = Metabolic stability in human liver microsomes; assay type: in vitro ADME; settings: human liver microsomes 0.5 mg mL^-1, NADPH 1 mM, 0-60 min; read-out: Liver microsomal stability t1/2 (min) Human
Protocol: (§1) The purpose of this study was to investigate the metabolic stability of the compounds of the present disclosure in human and dog liver microsomes.
(§2) The compounds were co-incubated with human (or dog) liver microsomes, and the reaction was initiated by adding coenzyme NADPH (1 mM). At 0, 5, 15, 30, and 60 minutes, 60 µL of incubation solution was removed, and 180 µL of acetonitrile containing internal standard (clopidogrel) was added to quench the reaction, the mixture was shaken for 10 seconds, centrifuged at 10000 rpm for 10 minutes, and the supernatant was taken for analysis by LC-MS/MS. The in vitro intrinsic clearance was calculated based on the elimination half-life of the test compound in the incubation system. Midazolam was used as an internal reference compound, with two parallel incubations for each. Incubation conditions are summarized in Table 6 below: Table 6 Incubation conditions for the example compounds of the present disclosure
(§3) The ratio of the peak area of analyte to internal standard (Aanalyte/AIS) was obtained from the instrument, and the remaining percentage (%Control) was calculated from the ratio of Aanalyte/AIS in non-zero time point samples to zero time samples. Ln (%Control) was plotted against incubation time and linearly fitted. The test compound clearance constant (k, min^-1) and clearance half-life (T1/2, min) were calculated using the following equations. k = −slope [formula] T1/2 = 0.693/k. [formula]

[2] = Pharmacokinetic test in mice after intragastric administration; assay type: in vivo; settings: male, mouse, plasma, ICR mice, Oral (10 mg/kg); for AUC(0-t): read-out: Area under curve AUC0-t; for half-life: read-out: Half-life T1/2 (converted); for Cmax: read-out: Plasma concentration Cmax
Protocol: ICR mice were used as test animals, the plasma concentrations of the control compound HRO761 and the compounds of the present disclosure at different time points after intragastric administration were determined by LC/MS/MS method, and the pharmacokinetic characteristics of the compounds of the present disclosure in mice were studied.
ICR mice, male, 30.8 to 38.0 g, purchased from Vital River Laboratory Animal Technology Co., Ltd.
An appropriate amount of the test compound was weighed, and an appropriate amount of DMA (N,N-dimethylacetamide), 30% Solutol HS15 (30% polyethylene glycol-15 hydroxystearate), and Saline (saline) were added sequentially, the mixture was ultrasonicated and vortex mixed to prepare a 1 mg/mL dosing formulation. The ratio of DMA:30% Solutol HS15:Saline was 5:5:90 (v/v/v).
After overnight fasting, ICR mice in each test compound injection group (9 mice per group) were administered intragastrically (PO, compound dose was 10 mg/kg, administration volume was 10 mL/kg), and food was given 4 hours after administration.
About 0.1 mL of blood was collected via the orbital cavity before administration and at 0.25 h, 0.5 h, 1 h, 2 h, 4 h, 8 h, 10 h, and 24 h after administration, and whole blood samples were placed in anticoagulant tubes containing EDTA-K2. The samples were placed on ice after collection, and plasma was separated by centrifugation (centrifugation conditions: 1500 g, 10 minutes). The collected plasma was stored at -40 to -20 °C before analysis.
The content of the test compound in mouse plasma after intragastric administration was determined by LC-MS/MS.

RL95-2 cells = test: Inhibition of RL95-2 cell proliferation (CellTiter-Glo); assay type: cell-based; settings: Homo sapiens; RL95-2 cells (MSI-H), 120 hours
Method in brief: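 RL95-2 (MSI-H) cells, 500/well in DMEM/F12 with 10% FBS, adhered overnight, then treated 120 h at 37 °C, 5% CO2 with compound at final 1.52-10000 nM. Viability by CellTiter-Glo luminescence. Inhibition relative to 0.1% DMSO control; IC50 from nonlinear regression of log concentration versus inhibition.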

[3] = Metabolic stability in dog liver microsomes; assay type: in vitro ADME; settings: dog liver microsomes 0.5 mg mL^-1, NADPH 1 mM, 0-60 min; read-out: Liver microsomal stability t1/2 (min) Dog
Protocol: as §1, §2, §3

[4] = tested on: Caco-2 monolayer cell model; test: Caco-2 bidirectional permeability and efflux ratio; assay type: in vitro ADME; settings: Caco-2, conclusion
Protocol: (§4) The bidirectional permeability and efflux ratio of the example compounds and control compound were determined in a Caco-2 monolayer cell model.
(§5) Caco-2 cells (cultured at Shanghai Medicilon Inc.) were recovered in the experiment. After the cells were in good condition, they were digested, and the cell density was adjusted (1 × 10^5 cells/cm^2). Caco-2 cells were seeded into Transwell chambers and placed in 24-well plates for cultivation. After continuous cultivation for about 21 days, TEER values were measured one day before the experiment to ensure formation of a confluent cell monolayer for transport experiments (TEER > 200 Ω·cm^2). Test compounds were diluted from 10 mM stock solutions to 10 µM concentration using transport buffer (HBSS containing BSA) (metoprolol and atenolol were set as positive compounds). For efflux determination, 0.6 mL of compound dilution solution was added to the outer well (side B), and 0.4 mL of blank transport buffer was added to the Transwell chamber. For absorption determination, 0.4 mL of transport buffer containing compound was added to the Transwell chamber, and 0.6 mL of blank transport buffer was added to the outer side. After setup, the 24-well plates were cultivated at 37 °C and 5% CO2 with 95% relative humidity for 120 minutes, and permeability of test compounds from A to B direction or B to A direction was measured, respectively, with two duplicate wells set for each direction. Liquid in Transwell chambers and 24-well plates was collected separately, 60 µL each, and 180 µL of acetonitrile (containing internal standard) was added, vortexed for 1 min, then centrifuged at 4 °C, 10000 rpm for 10 min. The supernatant was taken, filtered through a 0.22 µm membrane, and placed in vials for testing. The content of the compounds in each Transwell chamber and 24-well plate was determined by liquid chromatography-tandem mass spectrometry (LC-MS/MS). Table 4 Permeability data of compounds of the present disclosure

[5] = Caco-2 bidirectional permeability and efflux ratio; assay type: in vitro ADME; settings: human, Caco-2, 10 µM, 120 minutes; for efflux ratio at 120 min, 10 µM: read-out: Efflux ratio Papp(B-A)/ Papp(A-B); for Papp A→B at 120 min, 10 µM: A to B; for Papp B→A at 120 min, 10 µM: B to A
Protocol: as §4, §5

SW48 cells = test: Inhibition of SW48 cell proliferation (CellTiter-Glo); assay type: cell-based; settings: Homo sapiens; SW48 cells (MSI-H), 120 hours
Method in brief: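 SW48 (MSI-H) cells in L-15 with 10% FBS were seeded at 500 per well, cultured overnight at 37 °C, then exposed to compound at final concentrations of 10000 nM to 1.52 nM for 120 h. Viability was read by CellTiter-Glo luminescence, with inhibition relative to 0.1% DMSO. IC50 from nonlinear regression of log concentration versus inhibition.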

T1 sequence (Q14191 whole entry): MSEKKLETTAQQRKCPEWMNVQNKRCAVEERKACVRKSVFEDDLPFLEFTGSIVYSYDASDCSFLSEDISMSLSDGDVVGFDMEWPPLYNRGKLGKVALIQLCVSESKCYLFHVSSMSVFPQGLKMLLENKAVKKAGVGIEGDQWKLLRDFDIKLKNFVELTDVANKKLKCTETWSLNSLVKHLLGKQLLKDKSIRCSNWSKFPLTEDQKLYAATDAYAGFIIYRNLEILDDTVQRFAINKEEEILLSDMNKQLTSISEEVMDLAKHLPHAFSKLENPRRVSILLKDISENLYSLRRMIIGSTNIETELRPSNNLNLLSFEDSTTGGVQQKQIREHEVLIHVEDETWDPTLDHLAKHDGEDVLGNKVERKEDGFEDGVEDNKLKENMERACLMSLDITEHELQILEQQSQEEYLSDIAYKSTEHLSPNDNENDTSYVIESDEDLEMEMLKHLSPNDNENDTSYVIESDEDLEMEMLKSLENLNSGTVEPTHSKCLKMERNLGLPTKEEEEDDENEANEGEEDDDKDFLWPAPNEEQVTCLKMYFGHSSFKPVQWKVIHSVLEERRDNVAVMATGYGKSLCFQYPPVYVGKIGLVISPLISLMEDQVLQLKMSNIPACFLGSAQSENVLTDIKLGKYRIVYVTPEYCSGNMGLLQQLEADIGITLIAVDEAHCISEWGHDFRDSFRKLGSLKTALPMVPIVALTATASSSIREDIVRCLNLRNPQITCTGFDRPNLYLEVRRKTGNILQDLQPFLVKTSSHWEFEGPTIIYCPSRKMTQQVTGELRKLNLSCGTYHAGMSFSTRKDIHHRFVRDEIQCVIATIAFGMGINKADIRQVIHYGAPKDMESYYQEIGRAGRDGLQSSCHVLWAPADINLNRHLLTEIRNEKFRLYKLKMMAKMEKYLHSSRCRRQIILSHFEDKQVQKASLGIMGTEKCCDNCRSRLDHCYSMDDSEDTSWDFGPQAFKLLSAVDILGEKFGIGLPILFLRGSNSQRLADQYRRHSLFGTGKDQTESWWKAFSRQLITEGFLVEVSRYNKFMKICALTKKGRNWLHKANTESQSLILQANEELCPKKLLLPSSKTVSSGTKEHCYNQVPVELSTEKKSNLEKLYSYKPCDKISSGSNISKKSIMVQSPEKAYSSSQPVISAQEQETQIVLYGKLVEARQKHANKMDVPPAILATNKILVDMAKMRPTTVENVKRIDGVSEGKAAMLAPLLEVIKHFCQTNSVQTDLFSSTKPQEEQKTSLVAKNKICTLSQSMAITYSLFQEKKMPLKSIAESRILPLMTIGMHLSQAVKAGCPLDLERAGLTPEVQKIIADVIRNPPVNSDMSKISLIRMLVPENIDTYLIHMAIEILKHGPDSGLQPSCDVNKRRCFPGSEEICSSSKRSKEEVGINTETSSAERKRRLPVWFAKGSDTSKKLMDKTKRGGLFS

Row | SMILES | pIC50 (recombinant human WRN) | half-life [1] [min] | half-life [3] [min] | pIC50 (SW48 cells) | AUC(0-t) [2] [ng·h/mL] | half-life [2] [h] | Cmax [2] [ng/mL] | pIC50 (RL95-2 cells) | efflux (in words) [4] | permeability (in words) [4] | efflux ratio at 120 min, 10 µM [5] | Papp A→B at 120 min, 10 µM [5] [×10⁻⁶ cm/s] | Papp B→A at 120 min, 10 µM [5] [×10⁻⁶ cm/s]
1 | CCc1c(N2CCN(C(=O)c3ncnc(C)c3O)CC2)c(=O)n2nc(-c3ccc4occc4c3)nc2n1CC(=O)Nc1ccc(C(F)(F)F)cc1Cl [Example 67, 2-(2-(benzofuran-5-yl)-5-ethyl-6-(4-(5-hydroxy-6-methylpyrimidine-4-carbonyl)piperazin-1-yl)-7-oxo-[1,2,4]triazolo[1,5-a]pyrimidin-4(7H)-yl)-N-(2-chloro-4-(trifluoromethyl)phenyl)acetamide] | > 9.00 | 657 | 318 | – | 83400 | 0.66 | 31400 | 7.00 to 9.00 | – | – | – | – | –
2 | CCc1c(N2CCN(C(=O)c3ncnc(C)c3O)CC2)c(=O)n2nc(-c3ccc4ccoc4c3)nc2n1CC(=O)Nc1ccc(C(F)(F)F)cc1Cl [Example 68, 2-(2-(benzofuran-6-yl)-5-ethyl-6-(4-(5-hydroxy-6-methylpyrimidine-4-carbonyl)piperazin-1-yl)-7-oxo-[1,2,4]triazolo[1,5-a]pyrimidin-4(7H)-yl)-N-(2-chloro-4-(trifluoromethyl)phenyl)acetamide] | > 9.00 | – | – | – | 98900 | 2.41 | 17300 | 7.00 to 9.00 | no significant efflux | moderate permeability | 1.1 | 4.64 | 5.09
3 | CCc1c(N2CCN(C(=O)c3ncnc(C)c3O)CC2)c(=O)n2nc(C3=CCOCC3)nc2n1CC(=O)Nc1ccc(C(F)(F)F)cc1Cl [HRO761, reference compound] | – | 483 | 175 | – | 15600 | 2.81 | 7010 | – | apparent potential efflux properties | moderate permeability | 3.65 | 3.96 | 14.5

Further lines, with some results ahead:

Row | pIC50 (recombinant human WRN) | half-life [1] [min] | half-life [3] [min] | pIC50 (SW48 cells) | SMILES | AUC(0-t) [2] [ng·h/mL] | half-life [2] [h] | Cmax [2] [ng/mL] | pIC50 (RL95-2 cells) | efflux (in words) [4] | permeability (in words) [4] | efflux ratio at 120 min, 10 µM [5] | Papp A→B at 120 min, 10 µM [5] [×10⁻⁶ cm/s] | Papp B→A at 120 min, 10 µM [5] [×10⁻⁶ cm/s]
4 | 7.00 to 9.00 | 999 | 200 | – | CCc1c(N2CCN(C(=O)c3ncnc(C)c3O)CC2)c(=O)n2nc(-c3ccc4c(c3)CCO4)nc2n1CC(=O)Nc1ccc(C(F)(F)F)cc1Cl [Example 76, N-(2-chloro-4-(trifluoromethyl)phenyl)-2-(2-(2,3-dihydrobenzofuran-5-yl)-5-ethyl-6-(4-(5-hydroxy-6-methylpyrimidine-4-carbonyl)piperazin-1-yl)-7-oxo-[1,2,4]triazolo[1,5-a]pyrimidin-4(7H)-yl)acetamide] | – | – | – | 7.00 to 9.00 | – | – | – | – | –
5 | > 9.00 | 705 | 182 | 7.00 to 9.00 | CCc1c(N2CCN(C(=O)c3ncnc(C)c3O)CC2)c(=O)n2nc(-c3ccc4ncsc4c3)nc2n1CC(=O)Nc1ccc(C(F)(F)F)cc1Cl [Example 125, 2-(2-(benzo[d]thiazol-6-yl)-5-ethyl-6-(4-(5-hydroxy-6-methylpyrimidine-4-carbonyl)piperazin-1-yl)-7-oxo-[1,2,4]triazolo[1,5-a]pyrimidin-4(7H)-yl)-N-(2-chloro-4-(trifluoromethyl)phenyl)acetamide] | – | – | – | 7.00 to 9.00 | – | – | – | – | –

— patent publication EP4800015A1, “AZABICYCLO DERIVATIVE AND PREPARATION METHOD THEREFOR, AND USE” (Zhejiang Hisun Pharmaceutical Co., Ltd., priority 2023, dated 2025)
